Publication PMC3384000, “TCN 201 selectively blocks GluN2A-containing NMDARs in a GluN1 co-agonist dependent but non-competitive manner” (Neuropharmacology, 2012)
Read-outs that look alike come from different tables or passages of the source.

What was measured:
[1] = Solubility in external recording solutions; assay type: physicochemical; settings: external recording solutions for TEVC or whole-cell patch-clamp; from 3 mM DMSO stock
Protocol: Glutamate, glycine and D-serine were purchased from Sigma–Aldrich (Poole, UK). TCN 201, TCN 213, NMDA, ifenprodil, picrotoxin and tetrodotoxin were purchased from Tocris Bioscience (Bristol, UK). Stock solutions (3 mM) of TCN 201 were made by dissolving the antagonist in DMSO.

[2] = system: NMDAR-mediated currents in rat cortical neurones; assay: Whole-cell NMDA-evoked currents in cultured cortical neurones; assay type: cell-based; settings: TCN 201 10 μM after ifenprodil, NMDA 50 μM, glycine 3 μM
GluN1/GluN2B NMDARs = target: T1, GluN1/GluN2B NMDARs (Rattus norvegicus, UniProt P35439+Q00960); assay: TEVC recordings of NMDAR currents from Xenopus laevis oocytes expressing GluN1/GluN2B; assay type: cell-based; settings: TCN 201 10 μM, read-out: percentage inhibition of GluN1/GluN2B NMDAR-mediated currents
T1 construct: expressed in transfected cells; host or cells: Xenopus laevis oocytes injected with cRNA (GluN1:GluN2 1:1)
Protocol: (§1) Nomenclature of NMDA receptor subunits follows [Collingridge et al. (2009)] and [Alexander et al. (2011)]. pSP64T-based plasmid constructs containing cDNA coding for rat GluN1-1a (i.e. the splice variant that lacks exon 5, but contains exons 21 and 22), hereafter termed GluN1 and wild-type rat GluN2A receptor subunits were prepared as described by ([Chen et al., 2005]). The rat GluN2B-containing cDNA expression vector was a gift by Stephen Traynelis (Emory University, Atlanta, GA). cRNA was synthesized as runoff transcripts as previously detailed ([Chen et al., 2005], [2008]; [Erreger et al., 2007]). Fluorescence intensity in ethidium bromide-stained agarose gels was employed to confirm the fidelity and yield of synthesized cRNAs. For recombinant receptor expression, GluN1 and GluN2 cRNAs were mixed at a nominal ratio of 1:1 and diluted with nuclease-free water to 5 ng μl^−1.
(§2) Oocytes (Stage V–VI) were removed from Xenopus laevis that had been killed in accordance with current UK Home Office protocols and defolliculated by initial collagenase treatment, then manually using forceps. 23–37 nl of cRNA mix was injected into oocytes which were subsequently maintained in Barth's solution (composition in mM: NaCl 88, KCl 1, NaHCO3 2.4, MgCl2 0.82, CaCl2 0.77, Tris-Cl 15, adjusted to pH 7.35 with NaOH and supplemented with 50 IU ml^−1 penicillin, 50 μg ml^−1 streptomycin, 50 μg ml^−1 tetracycline) for 24–48 h at 19 °C to allow for receptor expression and then stored at 4 °C until required for electrophysiological measurements.
Two-electrode voltage-clamp (TEVC) recordings were made using a GeneClamp 500 amplifier (Molecular Devices, Sunnyvale, CA) at room temperature (18–21 °C) from oocytes placed in a bath that was perfused with a solution comprising (in mM): NaCl 115, KCl 2.5, HEPES 10, BaCl2 1.8, EDTA 0.01; pH 7.4 with NaOH. Note EDTA was included to chelate contaminating low nanomolar levels of Zn^2+ that potently block of GluN2A-containing NMDARs in a voltage-independent manner. […] TEVC recordings were performed at −30 or −40 mV. […]

GluN1/GluN2A NMDARs [3] = target: T2, GluN1/GluN2A NMDARs (Rattus norvegicus, UniProt P35439+Q00959); assay: Schild analysis of antagonism at GluN1/GluN2A NMDARs (TEVC, oocytes); assay type: cell-based; settings: for dose ratio (r) for shift in glycine potency: glutamate 30 μM; for Schild plot slope (free linear regression fit): 0.3, 1 and 3 μM TCN 201 data points
T2 construct: expressed in transfected cells; host or cells: Xenopus laevis oocytes injected with cRNA (GluN1:GluN2 1:1)
Protocol: as §1, §2
(§3) Two-electrode voltage-clamp (TEVC) recordings were made using a GeneClamp 500 amplifier (Molecular Devices, Sunnyvale, CA) at room temperature (18–21 °C) from oocytes placed in a bath that was perfused with a solution comprising (in mM): NaCl 115, KCl 2.5, HEPES 10, BaCl2 1.8, EDTA 0.01; pH 7.4 with NaOH. Note EDTA was included to chelate contaminating low nanomolar levels of Zn^2+ that potently block of GluN2A-containing NMDARs in a voltage-independent manner. […] TEVC recordings were performed at −30 or −40 mV. Currents were filtered at 10 Hz and digitized online at 100 Hz, via a Digidata 1200 A/D interface (Molecular Devices, Union City, CA, USA), using WinEDR 3.1.9 software (Strathclyde Electrophysiology Software, Strathclyde University, UK).
TCN 201 antagonism at the GluN1/GluN2A NMDAR was examined by the Schild method ([Arunlakshana and Schild, 1959]; [Wyllie and Chen, 2007]). Dose-ratios (r) were defined as the ratio of the concentration of agonist, in the presence of a fixed concentration of antagonist, required to evoke the same response that was obtained in the absence of the antagonist. Dose-ratios from individual oocytes were determined at low agonist concentrations by constructing a partial concentration-response curve generated in the absence of antagonist and in the presence of a series of increasing antagonist concentrations. Due to the lack of sufficient perfusion lines, the dose-ratio estimate for the higher concentrations of TCN 201 (3 and 10 μM) was determined in a separate series of experiments from those carried out for the lower two concentrations (0.3 and 1 μM). Each series of two-point concentration-response curves were plotted on a log–log scale and the slope of the line used to fit the initial (antagonist-free) two-point concentration-response curve was used to fit the remaining curves. These parallel fits were used to calculate an overall mean r value for each antagonist concentration [B], which were then used to construct a Schild plot. On a log–log scale the gradient of the line used to fit such data is predicted by the Schild equation to be unity for a competitive antagonist. […] For ‘allosteric’ antagonism at equilibrium, the Schild plot deviates from unity at higher concentrations of antagonist ([Christopoulos and Kenakin, 2002]). […]

GluN1/GluN2A NMDARs [4] = target: T2, GluN1/GluN2A NMDARs; assay: TEVC recordings of NMDAR currents from Xenopus laevis oocytes expressing GluN1/GluN2A; assay type: cell-based; settings: for inhibition at 10 µM: TCN 201 10 μM; for inhibition of GluN1/GluN2A NMDAR-mediated currents: antagonist 10 μM; for IC50: minimum unconstrained, read-out: IC50 (concentration giving 50% of the maximal achievable inhibition)
Protocol: as §1, §2, §3
The concentration of TCN 201 required to inhibit 50% (IC50) of agonist-evoked responses were determined by fitting data to the equation: I=I[B]∞+((I[B]0−I[B]∞)/(1+([B]/IC50)^nH)), where I is current response, I[B]0 is predicted maximum current in the absence of antagonist, I[B]∞ is the predicted minimum current in the presence of an infinite concentration of antagonist,[B] is the concentration of the antagonist and nH represents the Hill coefficient. To obtain an overall mean IC50 value, data points were normalised to the predicted maximum, pooled and refitted with the equation, with the maximum of each curve being constrained to asymptote to 1 but with the minimum fitted as a free parameter ([Otton et al., 2011]; [Wrighton et al., 2008]). In addition we fitted data points where both the maximum and minimum were constrained (to 1 and 0, respectively). The F ratio was calculated from the following equation: F=(SSR1−SSR2)/(DF1−DF2)/SSR2/DF2, where SSR1 and SSR2 are the sum of squared residuals of the constrained and unconstrained fits respectively and DF1 and DF2 are the degrees of freedom associated with each of the two fits.

GluN1/GluN2A NMDARs [5] = target: T2, GluN1/GluN2A NMDARs; design: method as in McKay et al., 2012; settings: ref McKay et al., 2012, cited from earlier work
[6] = glutamate 30 μM, D-serine 10 μM
[7] = glutamate 30 μM, D-serine 30 μM

T2 sequence (Q00959 20-1464 limits assumed, other chains not shown): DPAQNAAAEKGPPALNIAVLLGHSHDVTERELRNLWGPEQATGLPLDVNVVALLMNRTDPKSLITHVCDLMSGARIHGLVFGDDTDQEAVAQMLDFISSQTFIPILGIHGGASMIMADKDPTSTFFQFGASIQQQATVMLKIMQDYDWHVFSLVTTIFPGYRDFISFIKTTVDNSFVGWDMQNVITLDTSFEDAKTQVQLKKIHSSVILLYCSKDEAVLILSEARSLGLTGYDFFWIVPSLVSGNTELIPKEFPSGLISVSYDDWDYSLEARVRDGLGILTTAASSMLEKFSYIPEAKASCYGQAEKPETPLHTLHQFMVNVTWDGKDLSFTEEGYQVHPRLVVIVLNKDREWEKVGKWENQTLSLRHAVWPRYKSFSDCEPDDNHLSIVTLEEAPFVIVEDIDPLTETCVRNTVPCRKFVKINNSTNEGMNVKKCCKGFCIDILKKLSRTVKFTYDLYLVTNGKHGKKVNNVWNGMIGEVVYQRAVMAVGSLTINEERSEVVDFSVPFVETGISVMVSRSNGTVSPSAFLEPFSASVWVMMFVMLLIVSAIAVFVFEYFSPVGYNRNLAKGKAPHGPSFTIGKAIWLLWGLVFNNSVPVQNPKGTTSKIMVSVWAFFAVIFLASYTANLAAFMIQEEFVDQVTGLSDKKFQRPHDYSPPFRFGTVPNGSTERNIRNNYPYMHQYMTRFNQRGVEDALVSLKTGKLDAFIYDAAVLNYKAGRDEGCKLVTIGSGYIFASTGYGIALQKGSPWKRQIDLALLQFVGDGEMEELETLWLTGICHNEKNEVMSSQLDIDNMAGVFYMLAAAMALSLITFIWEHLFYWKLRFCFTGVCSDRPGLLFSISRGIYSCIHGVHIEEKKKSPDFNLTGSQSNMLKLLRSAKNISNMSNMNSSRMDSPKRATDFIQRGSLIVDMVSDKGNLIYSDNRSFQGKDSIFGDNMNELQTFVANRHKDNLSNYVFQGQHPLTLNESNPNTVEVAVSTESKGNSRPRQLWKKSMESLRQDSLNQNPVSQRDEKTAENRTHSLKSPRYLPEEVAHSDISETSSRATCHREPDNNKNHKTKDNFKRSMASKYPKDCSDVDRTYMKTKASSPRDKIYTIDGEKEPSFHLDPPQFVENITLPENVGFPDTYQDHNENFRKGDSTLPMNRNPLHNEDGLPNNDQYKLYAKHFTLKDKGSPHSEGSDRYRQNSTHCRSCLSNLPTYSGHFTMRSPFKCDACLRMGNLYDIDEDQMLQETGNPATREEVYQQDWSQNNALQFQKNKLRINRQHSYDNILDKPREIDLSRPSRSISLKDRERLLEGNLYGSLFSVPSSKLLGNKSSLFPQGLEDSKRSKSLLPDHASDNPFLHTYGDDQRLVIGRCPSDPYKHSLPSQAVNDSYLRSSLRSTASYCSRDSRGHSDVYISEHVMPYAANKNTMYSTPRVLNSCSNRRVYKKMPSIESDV
T1 sequence (Q00960 27-1482, other chains not shown): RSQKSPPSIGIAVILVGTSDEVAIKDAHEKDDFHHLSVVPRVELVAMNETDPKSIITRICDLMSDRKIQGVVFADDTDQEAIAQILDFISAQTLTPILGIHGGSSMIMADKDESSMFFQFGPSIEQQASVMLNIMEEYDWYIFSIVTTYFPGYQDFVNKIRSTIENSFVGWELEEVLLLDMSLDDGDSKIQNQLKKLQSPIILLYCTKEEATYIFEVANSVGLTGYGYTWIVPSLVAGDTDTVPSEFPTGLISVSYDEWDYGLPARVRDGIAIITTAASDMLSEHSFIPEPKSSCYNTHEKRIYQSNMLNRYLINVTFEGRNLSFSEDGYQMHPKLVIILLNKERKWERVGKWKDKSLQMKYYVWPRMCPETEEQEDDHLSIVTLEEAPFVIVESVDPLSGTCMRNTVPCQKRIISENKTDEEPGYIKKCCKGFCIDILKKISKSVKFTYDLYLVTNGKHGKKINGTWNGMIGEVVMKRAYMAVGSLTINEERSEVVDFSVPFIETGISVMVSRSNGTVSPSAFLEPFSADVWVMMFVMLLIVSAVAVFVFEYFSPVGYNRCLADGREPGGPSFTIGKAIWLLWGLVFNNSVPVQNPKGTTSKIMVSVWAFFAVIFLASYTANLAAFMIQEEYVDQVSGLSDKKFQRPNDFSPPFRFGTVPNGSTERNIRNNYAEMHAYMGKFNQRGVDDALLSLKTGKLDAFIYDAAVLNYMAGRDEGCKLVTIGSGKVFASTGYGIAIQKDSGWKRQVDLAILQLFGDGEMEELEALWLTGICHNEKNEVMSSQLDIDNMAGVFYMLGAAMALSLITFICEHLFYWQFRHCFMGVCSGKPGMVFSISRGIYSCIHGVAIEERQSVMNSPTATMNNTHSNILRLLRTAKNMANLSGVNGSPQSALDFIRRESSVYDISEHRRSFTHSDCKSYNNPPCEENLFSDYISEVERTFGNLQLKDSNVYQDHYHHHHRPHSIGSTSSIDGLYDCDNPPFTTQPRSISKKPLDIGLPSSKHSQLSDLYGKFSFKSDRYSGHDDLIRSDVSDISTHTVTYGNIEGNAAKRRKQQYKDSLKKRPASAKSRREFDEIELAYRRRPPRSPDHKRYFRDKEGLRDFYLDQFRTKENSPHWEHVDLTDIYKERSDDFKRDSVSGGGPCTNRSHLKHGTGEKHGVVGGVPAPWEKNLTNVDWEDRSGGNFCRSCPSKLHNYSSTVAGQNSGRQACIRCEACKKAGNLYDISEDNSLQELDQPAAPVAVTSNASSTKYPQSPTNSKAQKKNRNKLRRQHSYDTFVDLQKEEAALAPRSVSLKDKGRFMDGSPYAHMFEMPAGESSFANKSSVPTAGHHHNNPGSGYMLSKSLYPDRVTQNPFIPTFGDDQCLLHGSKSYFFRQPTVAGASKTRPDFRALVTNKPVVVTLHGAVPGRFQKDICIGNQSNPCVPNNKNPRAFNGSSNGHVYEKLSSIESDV

O=C(NNC(=O)c1ccc(CNS(=O)(=O)c2ccc(F)c(Cl)c2)cc1)c1ccccc1 [TCN 201, 3-chloro-4-fluoro-N-[4-[[2-(phenylcarbonyl)hydrazino]carbonyl]benzyl]benzenesulphonamide]
maximum usable concentration (noticeable precipitate at higher concentrations) [1]: 10 µM | block of NMDAR-mediated current (percentage of the original current magnitude) ([2]; DIV 9–10 neurones): 5 ± 2% | block of NMDAR-mediated current (percentage of the original current magnitude) ([2]; DIV 15–18 neurones): 16 ± 3% | block of NMDAR-mediated current (percentage of the original current magnitude) ([2]; GluN2A-transfected DIV 9–10 neurones): 47 ± 4% | inhibition at 10 µM (GluN1/GluN2B NMDARs; glycine 3 μM): 1.8 ± 0.6% | inhibition at 10 µM (GluN1/GluN2B NMDARs; glycine 10 μM): 3.1 ± 1% | inhibition at 10 µM (GluN1/GluN2B NMDARs; glycine 30 μM): 3.1 ± 0.8% | dose ratio (r) for shift in glycine potency (GluN1/GluN2A NMDARs [3]; 0.3 μM TCN 201): 5.19 ± 0.4 | dose ratio (r) for shift in glycine potency (GluN1/GluN2A NMDARs [3]; 1 μM TCN 201): 16.7 ± 2.1 | dose ratio (r) for shift in glycine potency (GluN1/GluN2A NMDARs [3]; 3 μM TCN 201): 41.1 ± 1.5 | dose ratio (r) for shift in glycine potency (GluN1/GluN2A NMDARs [3]; 10 μM TCN 201): 49.0 ± 2.0 | pA2 (GluN1/GluN2A NMDARs [3]; GluN1/GluN2A NMDARs, from Schild plot intercept): 7.15 | Schild plot slope (free linear regression fit) (GluN1/GluN2A NMDARs [3]; agonist D-serine): 0.87 | allosteric constant (α) (GluN1/GluN2A NMDARs [3]; agonist D-serine, modified equation): 0.0106 | Kb (GluN1/GluN2A NMDARs [3]; agonist D-serine, modified equation, all data points, read-out: allosteric KB^# (allosteric antagonist dissociation constant)): 66 nM | Kb (GluN1/GluN2A NMDARs [3]; agonist D-serine, slope constrained to unity, first three data points, read-out: equilibrium constant (KB)): 81 nM | maximum shift in the dose ratio (= 1/α) (GluN1/GluN2A NMDARs [3]; agonist glycine): around 80 fold | Schild plot slope (free linear regression fit) (GluN1/GluN2A NMDARs [3]; agonist glycine): 0.98 | TCN 201 concentration needed to achieve the maximum dose-ratio shift (GluN1/GluN2A NMDARs [3]; agonist glycine, above limit of solubility): approximately 275 μM | allosteric constant (α) (GluN1/GluN2A NMDARs [3]; agonist glycine, modified equation): 0.0123 | Kb (GluN1/GluN2A NMDARs [3]; agonist glycine, modified equation, all data points, read-out: allosteric KB^# (allosteric antagonist dissociation constant)): 56 nM | Kb (GluN1/GluN2A NMDARs [3]; agonist glycine, slope constrained to unity, first three data points, read-out: equilibrium constant (KB)): 70 nM | potency relative to TCN 213 at GluN1/GluN2A NMDARs (GluN1/GluN2A NMDARs [3]; comparison of pA2 / equilibrium constants): around 30 times | maximum shift in the dose ratio (= 1/α) (GluN1/GluN2A NMDARs [3]; glycine or D-serine as GluN1-site agonist): 80–90 fold | inhibition at 10 µM (GluN1/GluN2A NMDARs [4]; Fig. 2b, read-out: inhibition of glutamate/glycine-evoked GluN1/GluN2A NMDAR-mediated currents): 91.2 ± 1.1% | inhibition at 10 µM (GluN1/GluN2A NMDARs [4]; data not shown, read-out: inhibition of NMDA/glycine-evoked GluN1/GluN2A NMDAR-mediated currents): 69.9 ± 4.1% | inhibition at 10 µM (GluN1/GluN2A NMDARs [4]; glutamate 3 μM, glycine 30 μM, read-out: percentage inhibition of GluN1/GluN2A NMDAR-mediated currents): 54.5 ± 3.4% | inhibition at 10 µM (GluN1/GluN2A NMDARs [4]; glutamate 10 μM, glycine 30 μM, read-out: percentage inhibition of GluN1/GluN2A NMDAR-mediated currents): 52.2 ± 3.7% | inhibition at 10 µM (GluN1/GluN2A NMDARs [4]; glutamate 30 μM, glycine 30 μM (glutamate-dependency series), read-out: percentage inhibition of GluN1/GluN2A NMDAR-mediated currents): 45.8 ± 2.8% | inhibition of GluN1/GluN2A NMDAR-mediated currents (GluN1/GluN2A NMDARs [4]; glutamate 30 μM, glycine 10 μM): 82.4 ± 1.1% | inhibition of GluN1/GluN2A NMDAR-mediated currents (GluN1/GluN2A NMDARs [4]; glutamate 30 μM, glycine 30 μM): 50.7 ± 1.1% | Hill slope (GluN1/GluN2A NMDARs [4]; glutamate 30 μM, D-serine 3 μM): 1.57 ± 0.078 | IC50 (GluN1/GluN2A NMDARs [4]; glutamate 30 μM, D-serine 3 μM): 326 ± 18 nM | Hill slope (GluN1/GluN2A NMDARs [4]; [6]): 1.33 ± 0.21 | IC50 (GluN1/GluN2A NMDARs [4]; [6]): 816 ± 231 nM | Hill slope (GluN1/GluN2A NMDARs [4]; [7]): 1.17 ± 0.07 | IC50 (GluN1/GluN2A NMDARs [4]; [7]): 1920 ± 250 nM | Hill slope (GluN1/GluN2A NMDARs [4]; glutamate 30 μM, glycine 3 μM): 1.42 ± 0.061 | IC50 (GluN1/GluN2A NMDARs [4]; glutamate 30 μM, glycine 3 μM): 446 ± 26 nM | Hill slope (GluN1/GluN2A NMDARs [4]; glutamate 30 μM, glycine 10 μM): 1.49 ± 0.21 | IC50 (GluN1/GluN2A NMDARs [4]; glutamate 30 μM, glycine 10 μM): 746 ± 133 nM | Hill slope (GluN1/GluN2A NMDARs [4]; glutamate 30 μM, glycine 30 μM): 1.17 ± 0.11 | IC50 (GluN1/GluN2A NMDARs [4]; glutamate 30 μM, glycine 30 μM): 3890 ± 1060 nM | predicted maximal inhibition (GluN1/GluN2A NMDARs [4]; saturating glycine (or D-serine), from fits with unconstrained minima): around 40%

O=C(CSc1nnc(NCc2ccccc2)s1)NCC1CCCCC1 [TCN 213, N-(cyclohexylmethyl)-2-[{5-[(phenylmethyl)amino]-1,3,4-thiadiazol-2-yl}thio]acetamide]
inhibition of GluN1/GluN2A NMDAR-mediated currents (GluN1/GluN2A NMDARs [4]; glutamate 30 μM, glycine 10 μM): 44.0 ± 2.2% | inhibition of GluN1/GluN2A NMDAR-mediated currents (GluN1/GluN2A NMDARs [4]; glutamate 30 μM, glycine 30 μM): 17.3 ± 1.4% | pA2 (GluN1/GluN2A NMDARs [5]; GluN1/GluN2A NMDARs): 5.69 | Kb (GluN1/GluN2A NMDARs [5]; Schild analysis, agonist glycine, read-out: equilibrium constant (KB)): 2000 nM
